Earlier results on 27 compounds are cited in patent publication US7179597B2, “Genetic diagnosis for QT prolongation related adverse drug reactions” (Georgetown University, priority 2000, dated 2007).

Like-named read-outs stand apart in the source and are kept apart here.

The conditions of series [1]: cited from earlier work.
The conditions of series [2]: cited from earlier work. This is another data set of the same source.
[3] abbreviates: Table 2, FDA / medical literature.

`N=C(N)c1ccc(OCCCCCOc2ccc(C(=N)N)cc2)cc1` [Pentamidine]: the TdP result in series [1] (setting [3]) was “Yes”.

Regarding `Cc1nc2n(c(=O)c1CCN1CCC(c3noc4cc(F)ccc34)CC1)CCCC2` [Risperidone], the TdP entry in series [1] (setting [3]) and in series [1] (Table 3) was “Yes” in each case. The QT result is listed as “Yes” in series [2] (Table 2, drug labeling) and “Yes” in series [2] (Table 3).

`COC(=O)C1=C(C)NC(C)=C(C(=O)OCCN(C)Cc2ccccc2)C1c1cccc([N+](=O)[O-])c1` (stereo not drawn) [Nicardipine]: the QT result in series [2] (Table 2, drug labeling) is given as “Yes”.

Regarding `CNCCCC1c2ccccc2C=Cc2ccccc21` [Protriptyline], the QT result in series [2] (Table 2, drug labeling) was “Yes”; in series [2] (Table 3) it was “Yes”.

Take `Cc1cccc(C)c1NC(=O)C(C)N` (stereo not drawn) [Tocainide]: in series [2] (Table 2, drug labeling), the QT entry is listed as “Yes”.

Consider `CC[C@H]1OC(=O)[C@H](C)[C@@H](O[C@H]2C[C@@](C)(OC)[C@@H](O)[C@H](C)O2)[C@H](C)[C@@H](O[C@@H]2O[C@H](C)C[C@H](N(C)C)[C@H]2O)[C@](C)(OC)C[C@@H](C)C(=O)[C@H](C)[C@@H](O)[C@]1(C)O` [Clarithromycin], for which the QT result in series [2] (Table 2, drug labeling) is given as “Yes”; in series [2] (Table 3), “Yes”.

In the case of `OCc1cc(C(O)CNCCCCCCOCCCCc2ccccc2)ccc1O` (stereo not drawn) [Salmeterol], the QT result in series [2] (Table 2, drug labeling) is listed as “Yes”.

Take `OCCOCCN1CCN(C2=Nc3ccccc3Sc3ccccc32)CC1` [Quetiapine]: in series [2] (Table 2, drug labeling), the QT result is recorded as “Yes”.

For the compound `COC(=O)C1=C(C)NC(C)=C(C(=O)OC(C)C)C1c1cccc2nonc12` (stereo not drawn) [Isradipine], the QT result in series [2] (Table 2, drug labeling) is “Yes”.

Consider `CN1CCC[C@@H]1CCO[C@](C)(c1ccccc1)c1ccc(Cl)cc1` [Clemastine], for which the TdP result in series [1] (setting [3]) and in series [1] (Table 3) was “Maybe—” in each case.

For the compound `OCCN1CCN(CCCN2c3ccccc3Sc3ccc(Cl)cc32)CC1` [Perphenazine], the QT result in series [2] (Table 2, drug labeling) is “Yes”.

For `CNS(=O)(=O)CCc1ccc2[nH]cc(C3CCN(C)CC3)c2c1` [Naratriptan], the QT result in series [2] (Table 2, drug labeling) is “Yes”.

`O=C1NC(c2ccccc2)(c2ccccc2)C(=O)N1COP(=O)(O)O` [Fosphenytoin]: in series [2] (Table 2, drug labeling), the QT entry is recorded as “Yes”.

For `CCN(CC)CCNC(=O)c1ccc(N)cc1` [Procainamide], the QT result in series [2] (Table 2, drug labeling) is listed as “Yes”.

Take `CNS(=O)(=O)Cc1ccc2[nH]cc(CCN(C)C)c2c1` [Sumatriptan]: in series [2] (Table 2, drug labeling), the QT result is reported as “Yes”.

`C[C@]12CCC(=O)C=C1CC[C@H]1[C@@H]3CC[C@](O)(C(=O)CO)[C@@]3(C)C[C@H](O)[C@@]12F` [Fludrocortisone]: the QT result in series [2] (Table 2, drug labeling) is listed as “Yes”.

As to `Clc1ccc2nsnc2c1NC1=NCCN1` [Tizanidine], in series [2] (Table 2, drug labeling), the QT result is “Yes”.

Consider `CCCCc1oc2ccccc2c1C(=O)c1cc(I)c(OCCN(CC)CC)c(I)c1` [Amiodarone], for which the TdP result in series [1] (setting [3]) and in series [1] (Table 3) was “Yes” each time.

With `CCOC(=O)Nc1ccc2c(c1)N(C(=O)CCN1CCOCC1)c1ccccc1S2` [Moricizine], the TdP entry in series [1] (setting [3]) is listed as “Yes”.

In the case of `CNCCC=C1c2ccccc2CCc2ccccc21` [Nortriptyline], the QT entry in series [2] (Table 2, drug labeling) was “Yes”.

Take `CN(C)CCc1c[nH]c2ccc(C[C@H]3COC(=O)N3)cc12` [Zolmitriptan]: the QT result in series [2] (Table 2, drug labeling) is “Yes”.

As to `CC[C@H]1OC(=O)[C@H](C)[C@@H](O[C@H]2C[C@@](C)(OC)[C@@H](O)[C@H](C)O2)[C@H](C)[C@@H](O[C@@H]2O[C@H](C)C[C@H](N(C)C)[C@H]2O)[C@](C)(O)C[C@@H](C)C(=O)[C@H](C)[C@@H](O)[C@]1(C)O` [Erythromycin], the QT entry in series [2] (Table 2, drug labeling) is on record as “Yes”; in series [2] (Table 3), “Yes”.

On to `O=C(O)P(=O)(O)O` [Foscarnet], for which the QT entry in series [2] (Table 2, drug labeling) was “Yes”.

For `CC(C)NCC(O)c1ccc(NS(C)(=O)=O)cc1` (stereo not drawn) [Sotalol], the QT result in series [2] (Table 2, drug labeling) is recorded as “Yes”.

Consider `CN1CCCC(n2nc(Cc3ccc(Cl)cc3)c3ccccc3c2=O)CC1` (stereo not drawn) [Azelastine], for which, in series [2] (Table 2, drug labeling), the QT result is given as “Yes”.

Consider `CN(C)CCCN1c2ccccc2CCc2ccccc21` [Imipramine], for which the QT entry in series [2] (Table 2, drug labeling) is “Yes”; in series [2] (Table 3) it was “Yes”.

`Clc1ccc2c(c1)C(N1CCNCC1)=Nc1ccccc1O2` [Amoxapine]: in series [2] (Table 2, drug labeling), the QT entry was “Yes”.
